Where two headings read alike, the source gives them in different places.
Tests used:
[1] = system: wild-type HIV-1 IIIB strain; assay: Antiviral activity in MT4 LTR-EGFP cellular assay; type: cell-based; conditions: Human immunodeficiency virus 1, 72 h; wild-type HIV-1 IIIB, MT4 LTR-EGFP cells, three days after infection; pEC50 = -log10(EC50); read-out: Antiviral Activity IIIB pEC50 (converted)
Experimental: (§1) Assay 1 &2: Antiviral Activity/Toxicity
The compounds of the present invention were tested for antiviral activity in a cellular assay, which was performed according to the following procedure.
The human T-cell line MT4 is engineered with Green Fluorescent Protein (GFP) and an HIV-specific promoter, HIV-1 long terminal repeat (LTR). This cell line is designated MT4 LTR-EGFP, and can be used for the in vitro evaluation of anti-HIV activity of investigational compounds. In HIV-1 infected cells, the Tat protein is produced which upregulates the LTR promotor and finally leads to stimulation of the GFP reporter production, allowing measuring ongoing HIV-infection fluorometrically.
(§2) The ratio of CC50 to EC50 is defined as the selectivity index (SI) and is an indication of the selectivity of the anti-HIV activity of the inhibitor. The ultimate monitoring of HIV-1 infection and cytotoxicity is done using a scanning microscope. Image analysis allows very sensitive detection of viral infection. Measurements are done before cell necrosis, which usually takes place about five days after infection, in particular measurements are performed three days after infection.
A pEC50 value corresponds to −log10(EC50). A pCC50 value corresponds to −log10(CC50).

[2] = Cytotoxicity in mock-infected MT4 CMV-EGFP cells; type: cell-based; conditions: human, pCC50 = -log10(CC50), read-out: Toxicity MT4 pCC50 (converted)
Text: as §1
Analogously, MT4 cells are engineered with GFP and the constitutional cytomegalovirus (CMV) promotor. This cell line is designated MT4 CMV-EGFP, and can be used for the in vitro evaluation of cytotoxicity of investigational compounds. In this cell line, GFP levels are comparably to those of infected MT4 LTR-EGFP cells. Cytotoxic investigational compounds reduce GFP levels of mock-infected MT4 CMV-EGFP cells.
as §2, with “Effective concentration values such as 50% effective concentration (EC50) can be determined and are usually expressed in μM. An EC50 value is defined as the concentration of test compound that reduces the fluorescence of HIV-infected cells by 50%. The 50% cytotoxic concentration (CC50 in μM) is defined as the concentration of test compound that reduces fluorescence of the mock-infected cells by 50%. The ratio” for “The ratio”
Table 2 lists pEC50 values against the wild-type HIV-1 IIIB strain as well as pCC50 values for a selected number of compounds of the invention. A pEC50 value corresponds to −log10(EC50). A pCC50 value corresponds to −log10(CC50).

in vitro = in vitro ADME, human; conditions: human, pH 7.4
Text: Assay 3: Metabolic Stability of Test Compounds (HLM15′)
Sub-cellular tissue preparations are made according to Gorrod et al. (Xenobiotica, 5, pp. 453-462 (1975)) by centrifugal separation after mechanical homogenization of tissue. Human liver tissue is rinsed in ice-cold 0.1 M Tris-HCl (pH 7.4) buffer to wash excess blood. Tissue is then blotted dry, weighed and chopped coarsely using surgical scissors. The tissue pieces are homogenized in 3 volumes of ice-cold 0.1 M phosphate buffer (pH 7.4) using either a Potter-S (Braun, Italy) equipped with a Teflon pestle or a Sorvall Omni-Mix homogenizer, for 7×10 sec. In both cases, the vessel is kept in/on ice during the homogenization process. Tissue homogenates are centrifuged at 9000×g for 20 min at 4° C. using a Sorvall centrifuge or Beckman Ultracentrifuge. The resulting supernatant can be stored at −80° C. and is designated ‘S9’. The S9 fraction is centrifuged at 100,000×g for 60 min at 4° C. using a Beckman ultracentrifuge. The resulting supernatant is carefully aspirated, aliquoted and designated ‘cytosol’. The pellet is re-suspended in 0.1 M phosphate buffer (pH 7.4) in a final volume of 1 ml per 0.5 g original tissue weight and designated ‘microsomes’. All sub-cellular fractions are aliquoted, immediately frozen in liquid nitrogen and stored at −80° C. until use.
Heat-inactivated (10 min at 95° C.) ‘S9’ or microsomes were used for blank experiments. Reaction mixtures were incubated at 37° C. for 5 min, after which the reaction was started by the addition of 0.8 mM β-NADP. The reaction was incubated for 0 or 15 min. Next, the reaction was stopped by addition of 2 volumes of DMSO (or acetonitrile). Samples were centrifuged (10 min, 900×g) and analyzed by LC-MS.

CYP3A4 = target: T1, CYP3A4 (Homo sapiens, UniProt P08684); assay: CYP450 inhibition, fluorescent substrate assay, CYP3A4; type: biochemical; conditions: 10 μM test compound; for inhibition at 10 min, 10 μM: E. coli expressed CYP3A4, pH 7.4, probe DBF (1 μM), substrate DBF 1 μM, read-out: 3A4-DBF % inh.
T1 construct: host or cells: E. coli
Experimental: (§3) Assay 4: CYP450 Inhibition […] This fluorescent molecule was measured using a fluorescent plate reader (Victor2 (Wallac) or Fluoroskan (Labsystems)). Compounds inhibiting the enzymatic reaction will result in a decrease of fluorescent signal. CYP P450 enzymes were prepared in house or commercially bought and stored at −80° C. [table] The assay was performed in black 96 well Costar plates. Test compounds were added to a CYP P450 enzyme solution in the presence of an NADPH generating system. After 5 min of preincubation at 37° C., the freshly prepared, phosphate buffered (pH 7.4) substrate solution was added. Known CYP P450 inhibitors were used as positive controls, negative controls were run without CYP P450 enzyme. For final reaction mixture concentrations, see Table 6. […] Then, the reaction was stopped by the addition of 200 μl acetonitrile, and the fluorescent signal was detected. [table] […] Inhibition of TMC114 Metabolisation

CYP2C9 = CYP2C9 (Homo sapiens, UniProt P11712); assay: CYP450 inhibition, fluorescent substrate assay, CYP2C9; type: biochemical; conditions: pH 7.4
Experimental: as §3

CYP2D6 = target: T2, CYP2D6 (Homo sapiens, UniProt P10635); assay: CYP450 inhibition, fluorescent substrate assay, CYP2D6; type: biochemical; conditions: E. coli expressed CYP2D6, pH 7.4, probe AMMC (3 μM), 10 μM test compound, substrate AMMC 3 μM, read-out: 2D6-AMMC % inh.
T2 construct: host or cells: E. coli
Experimental: as §3

CYP1A2 = target: T3, CYP1A2 (Homo sapiens, UniProt P05177); assay: CYP450 inhibition, fluorescent substrate assay, CYP1A2; type: biochemical; conditions: E. coli expressed CYP1A2, pH 7.4, probe CEC (5 μM), 10 μM test compound, substrate CEC 5 μM, read-out: 1A2-CEC % inh.
T3 construct: host or cells: E. coli
T3 sequence (P05177 1-516): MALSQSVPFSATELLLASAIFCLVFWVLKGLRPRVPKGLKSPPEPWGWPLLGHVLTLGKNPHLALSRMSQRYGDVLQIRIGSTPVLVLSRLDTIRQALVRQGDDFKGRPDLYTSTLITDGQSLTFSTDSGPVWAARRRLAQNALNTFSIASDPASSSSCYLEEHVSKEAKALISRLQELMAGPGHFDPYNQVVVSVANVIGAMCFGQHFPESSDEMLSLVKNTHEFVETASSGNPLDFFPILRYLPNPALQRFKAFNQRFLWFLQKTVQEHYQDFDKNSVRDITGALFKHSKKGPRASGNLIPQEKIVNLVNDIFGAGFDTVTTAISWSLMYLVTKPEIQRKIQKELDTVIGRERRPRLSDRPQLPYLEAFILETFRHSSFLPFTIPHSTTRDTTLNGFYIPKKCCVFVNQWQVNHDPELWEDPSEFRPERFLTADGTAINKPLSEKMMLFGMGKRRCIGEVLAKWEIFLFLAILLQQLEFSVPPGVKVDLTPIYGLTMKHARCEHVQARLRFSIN
Experimental: as §3

CYP2C19 = target: T4, CYP2C19 (Homo sapiens, UniProt P33261); assay: CYP450 inhibition, fluorescent substrate assay, CYP2C19; type: biochemical; conditions: E. coli expressed CYP2C19, pH 7.4, probe CEC (25 μM), 10 μM test compound, substrate CEC 25 μM, read-out: 2C19-CEC % inh.
T4 construct: host or cells: E. coli
Experimental: as §3

[3] = E. coli expressed CYP3A4, pH 7.4, probe BFC (150 μM), substrate BFC 150 μM, read-out: 3A4-BFC % inh.
[4] = E. coli expressed CYP3A4, pH 7.4, probe BQ (60 μM), substrate BQ 60 μM, read-out: 3A4-BQ % inh.

T1 sequence (P08684 whole entry): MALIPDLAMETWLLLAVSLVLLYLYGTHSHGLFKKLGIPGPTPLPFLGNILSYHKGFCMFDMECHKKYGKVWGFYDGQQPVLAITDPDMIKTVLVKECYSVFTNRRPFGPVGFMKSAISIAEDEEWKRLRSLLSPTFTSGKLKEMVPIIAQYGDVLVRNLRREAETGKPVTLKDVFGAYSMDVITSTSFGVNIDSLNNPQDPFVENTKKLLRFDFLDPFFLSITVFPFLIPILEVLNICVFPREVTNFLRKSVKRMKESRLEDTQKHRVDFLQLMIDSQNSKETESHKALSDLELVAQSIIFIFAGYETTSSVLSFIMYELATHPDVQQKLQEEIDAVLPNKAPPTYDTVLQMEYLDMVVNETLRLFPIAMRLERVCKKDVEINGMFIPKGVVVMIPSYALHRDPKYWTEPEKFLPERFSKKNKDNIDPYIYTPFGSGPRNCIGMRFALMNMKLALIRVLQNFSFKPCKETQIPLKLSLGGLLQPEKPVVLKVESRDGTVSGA
T4 sequence (P33261 whole entry): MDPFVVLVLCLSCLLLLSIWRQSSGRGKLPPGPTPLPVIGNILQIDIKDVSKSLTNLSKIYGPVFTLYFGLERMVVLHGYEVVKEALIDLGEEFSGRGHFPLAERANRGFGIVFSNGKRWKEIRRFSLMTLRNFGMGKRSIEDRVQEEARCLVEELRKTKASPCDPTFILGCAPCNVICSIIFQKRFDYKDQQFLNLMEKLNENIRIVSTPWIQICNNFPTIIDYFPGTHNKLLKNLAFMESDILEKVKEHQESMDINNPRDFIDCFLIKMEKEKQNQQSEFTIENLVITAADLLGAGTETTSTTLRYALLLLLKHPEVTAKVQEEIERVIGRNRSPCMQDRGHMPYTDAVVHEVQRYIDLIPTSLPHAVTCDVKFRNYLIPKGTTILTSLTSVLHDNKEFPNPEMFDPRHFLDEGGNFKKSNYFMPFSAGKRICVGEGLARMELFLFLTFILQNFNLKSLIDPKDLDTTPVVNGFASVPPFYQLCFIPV
Sequence of CYP2C9 (P11712 whole entry): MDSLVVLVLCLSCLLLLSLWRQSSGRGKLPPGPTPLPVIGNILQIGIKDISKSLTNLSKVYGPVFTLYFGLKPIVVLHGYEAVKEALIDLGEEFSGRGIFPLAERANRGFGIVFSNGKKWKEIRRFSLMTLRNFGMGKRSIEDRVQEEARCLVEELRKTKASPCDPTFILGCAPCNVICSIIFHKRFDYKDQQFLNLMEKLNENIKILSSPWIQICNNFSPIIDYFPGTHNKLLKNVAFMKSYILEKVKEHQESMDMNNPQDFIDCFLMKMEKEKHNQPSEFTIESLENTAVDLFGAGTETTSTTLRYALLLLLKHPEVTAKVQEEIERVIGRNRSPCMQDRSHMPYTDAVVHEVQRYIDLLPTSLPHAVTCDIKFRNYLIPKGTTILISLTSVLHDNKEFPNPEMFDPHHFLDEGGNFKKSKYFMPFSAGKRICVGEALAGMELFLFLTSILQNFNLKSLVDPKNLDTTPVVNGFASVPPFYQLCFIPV
T2 sequence (P10635 whole entry): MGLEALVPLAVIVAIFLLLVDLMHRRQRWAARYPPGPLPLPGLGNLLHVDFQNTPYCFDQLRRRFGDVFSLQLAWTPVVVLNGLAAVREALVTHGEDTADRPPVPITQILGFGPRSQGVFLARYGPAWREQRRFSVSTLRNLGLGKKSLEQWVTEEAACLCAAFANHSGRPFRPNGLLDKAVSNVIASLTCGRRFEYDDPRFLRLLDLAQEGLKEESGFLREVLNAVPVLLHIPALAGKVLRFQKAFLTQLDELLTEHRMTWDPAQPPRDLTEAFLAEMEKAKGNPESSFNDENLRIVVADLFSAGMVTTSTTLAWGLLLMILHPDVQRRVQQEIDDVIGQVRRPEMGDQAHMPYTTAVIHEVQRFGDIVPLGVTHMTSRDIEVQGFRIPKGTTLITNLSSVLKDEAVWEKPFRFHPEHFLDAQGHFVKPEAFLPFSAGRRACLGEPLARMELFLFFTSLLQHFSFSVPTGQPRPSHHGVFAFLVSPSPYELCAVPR

| Structure (SMILES) | EC50 [1] [µM] | CC50 at 3 days [2] [µM] | recovery at 15 min, 5 μM (in vitro) [%] | inhibition at 30 min, 10 μM (CYP3A4; [3]) [%] | inhibition at 30 min, 10 μM (CYP3A4; [4]) [%] | inhibition at 10 min, 10 μM (CYP3A4) [%] | inhibition at 30 min, 10 μM (CYP2C9) [%] | inhibition at 45 min, 10 μM (CYP2D6) [%] | inhibition at 15 min, 10 μM (CYP1A2) [%] | inhibition at 30 min, 10 μM (CYP2C19) [%] |
| --- | --- | --- | --- | --- | --- | --- | --- | --- | --- | --- |
| CC(C)CN(C[C@@H](O)[C@H](Cc1ccccc1)NC(=O)OCc1cncs1)C(=O)c1ccncc1 [Compound C8] | > 100 | > 100 | 81 | 91 | 79 | 91 | 95 | 39 | 4 | 76 |
| CC(C)CN(C[C@@H](O)[C@H](Cc1ccccc1)NC(=O)OCc1cncs1)C(=O)c1ccccn1 [Compound C9] | > 100 | > 100 | 55 | 91 | 78 | 89 | 85 | 66 | 4 | 64 |
| Cc1cccc(C(=O)N(CC(C)C)C[C@@H](O)[C@H](Cc2ccccc2)NC(=O)OCc2cncs2)c1 [Compound C10] | > 100 | > 100 | 47 | 95 | 79 | 93 | 96 | 62 | 33 | 92 |
| CC(C)CN(C[C@@H](O)[C@H](Cc1ccccc1)NC(=O)OCc1cncs1)C(=O)c1cccc(C(F)(F)F)c1 [Compound C11] | 38 | 34.7 | 52 | 94 | 78 | 99 | 97 | 86 | 45 | 100 |
| CC(C)CN(C[C@@H](O)[C@H](Cc1ccccc1)NC(=O)OCc1cncs1)C(=O)c1cnc2ccccc2n1 [Compound C12, 1S-2R-{1-Benzyl-2-hydroxy-3-[isobutyl-(quinoxaline-2-carbonyl)-amino]-propyl}-carbamic acid thiazol-5-ylmethyl ester] | 60.3 | 61.7 | 67 | 70 | 79 | 93 | 92 | 0 | 21 | 81 |
| CC(C)CN(C[C@@H](O)[C@H](Cc1ccccc1)NC(=O)OCc1cncs1)C(=O)c1cccnc1 [Compound C13] | > 100 | > 100 | 69 | 81 | 84 | 94 | 95 | 64 | 8 | 67 |
| CC(C)CN(C[C@@H](O)[C@H](Cc1ccccc1)NC(=O)OCc1cncs1)C(=O)c1ccc[nH]1 [Compound C14] | 79.4 | 89.1 | 24 | 84 | 80 | 91 | 98 | 67 | 56 | 87 |
| CC(C)CN(C[C@@H](O)[C@H](Cc1ccccc1)NC(=O)OCc1cncs1)C(=O)c1cccc(Cl)c1 [Compound C15] | 50.1 | 42.7 | 57 | 75 | 80 | 92 | 97 | 41 | 51 | 92 |
| CC(C)CN(C[C@@H](O)[C@H](Cc1ccccc1)NC(=O)OCc1cncs1)C(=O)c1ccc(Cl)cc1 [Compound C16] | 38.9 | 40.7 | 59 | 71 | 82 | 92 | 97 | 43 | 50 | 90 |
